This is an account of results in ChEMBL document CHEMBL1914349, “Porpoisamides A and B, two novel epimeric cyclic depsipeptides from a Florida Keys collection of Lyngbya sp” (Bioorg Med Chem, 2011).

One test deals with HCT-116. Briefly: Antiproliferative activity against human HCT116 cells after 48 hrs by MTT assay. The class given is functional, cell-based. The conditions noted are these: HCT-116, 48 h. Background: Formazan colour is commonly taken as a measure of viable cells.
For the next test, the system named is U2OS. Briefly: Antiproliferative activity against human U2OS cells after 48 hrs by MTT assay. The class given is functional, cell-based.

Each structure is given as a SMILES string. pIC50: −log10 of the molar value.

As to `CCCCC[C@H]1NC(=O)[C@H](C)NC(=O)[C@@H](Cc2ccccc2)N(C)C(=O)[C@@H]2CCCN2C(=O)[C@H]([C@@H](C)CC)OC(=O)[C@H]1C` [PORPOISAMIDE A], the pIC50 is 4.60 in the test with HCT-116 and 4.55 in the test on U2OS.

Take `CCCCC[C@H]1NC(=O)[C@H](C)NC(=O)[C@@H](Cc2ccccc2)N(C)C(=O)[C@@H]2CCCN2C(=O)[C@H]([C@@H](C)CC)OC(=O)[C@@H]1C` [PORPOISAMIDE B]: the figures for the pIC50 in the test on HCT-116 and in the test on U2OS were 4.68 and 4.66, respectively.

In general, pIC50 refers to the IC50 on a negative log10 scale, so that one unit is a factor of ten. The low end stands for a large IC50, the high end for a small IC50.
